Source: ChEMBL document CHEMBL5338769, “Discovery of Norisoboldine Analogue III11 as a Novel and Potent Aryl Hydrocarbon Receptor Agonist for the Treatment of Ulcerative Colitis” (J Med Chem, 2023)
Calls of active or inactive are those of the source. No cut-off for these calls is given here.

Columns and labels:
[1] = MRT in Sprague-Dawley rat at 3 mg/kg, iv measured upto 1440 min by LC-MS/MS analysis; assay type: ADME, organism-based; details: in vivo
[2] = test system: Mus musculus; test: Anti-colitis activity in DSS-induced ulcerative colitis C57BL/6 mouse model assessed as CD4+CD25+Foxp3+ Treg cell percentage in spleen at 10 mg/kg, po administered once a day for 10 days by flow cytometric analysis (reference value: 3.3%); assay type: functional; details: time 10 day
[3] = Apparent oral clearance in Sprague-Dawley rat at 3 mg/kg, iv measured upto 1440 min by LC-MS/MS analysis; assay type: ADME, organism-based; details: in vivo, 24 h
[4] = test system: Mus musculus; test: Anti-colitis activity against DSS-induced ulcerative colitis C57BL/6 mouse model assessed as amelioration of mucosal architecture score by measuring granulation in colon at 10 to 20 mg/kg, po administered once a day for 10 days by H&E staining based histopathological analysis; assay type: functional, organism-based; details: dose 10-20 mg/kg, time 10.0 day
[5] = Upregulation of GATA3 expression level in DSS-induced ulcerative colitis C57BL/6 mouse model assessed as fold change at 20 mg/kg, po administered once a day for 10 days by qRT-PCR analysis; assay type: functional; details: time 10 day
[6] = Cmax in Sprague-Dawley rat at 30 mg/kg, po measured at 120 min by LC-MS/MS analysis; assay type: ADME, organism-based; design: dose 30 mg/kg, time 120 min, route po; details: in vivo
[7] = AUC(0 to infinity) in Sprague-Dawley rat at 30 mg/kg, po measured upto 1440 min by LC-MS/MS analysis; assay type: ADME, organism-based; design: time < 1440 min, dose 30 mg/kg, route po; details: in vivo
[8] = target: T1, Aryl hydrocarbon receptor (Mus musculus, UniProt P30561); test: Binding affinity to AhR in mouse EL4 cells assessed as thermal stabilization at 3 uM at 37 to 67 degreeC incubated for 24 hrs thermal shift assay based Western blot analysis; assay type: cell-based; details: el4, 24 h
T1 sequence (P30561 whole entry): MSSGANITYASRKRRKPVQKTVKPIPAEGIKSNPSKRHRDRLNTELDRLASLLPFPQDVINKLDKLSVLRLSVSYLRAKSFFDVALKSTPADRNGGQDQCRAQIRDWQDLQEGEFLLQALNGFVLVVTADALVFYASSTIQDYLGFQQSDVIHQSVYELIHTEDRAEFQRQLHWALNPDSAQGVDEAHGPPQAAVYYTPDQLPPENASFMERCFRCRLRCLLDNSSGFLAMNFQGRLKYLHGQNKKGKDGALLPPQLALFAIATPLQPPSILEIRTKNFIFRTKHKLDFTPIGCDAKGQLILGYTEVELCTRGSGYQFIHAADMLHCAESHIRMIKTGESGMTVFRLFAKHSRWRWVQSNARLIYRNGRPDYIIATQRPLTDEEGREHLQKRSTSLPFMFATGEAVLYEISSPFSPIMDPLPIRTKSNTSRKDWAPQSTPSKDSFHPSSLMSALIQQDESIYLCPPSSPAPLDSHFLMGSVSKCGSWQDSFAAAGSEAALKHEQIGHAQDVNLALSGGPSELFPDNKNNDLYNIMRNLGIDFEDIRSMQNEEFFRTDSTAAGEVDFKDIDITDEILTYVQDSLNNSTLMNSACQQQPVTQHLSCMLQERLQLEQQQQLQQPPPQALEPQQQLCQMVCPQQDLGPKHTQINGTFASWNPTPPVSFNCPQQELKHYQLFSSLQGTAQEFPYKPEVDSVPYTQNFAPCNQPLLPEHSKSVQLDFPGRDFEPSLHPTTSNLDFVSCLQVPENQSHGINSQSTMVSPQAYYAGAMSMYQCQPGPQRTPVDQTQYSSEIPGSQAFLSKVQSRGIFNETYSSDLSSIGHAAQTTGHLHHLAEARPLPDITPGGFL

[9] = test system: Mus musculus; test: Anti-colitis activity against DSS-induced ulcerative colitis C57BL/6 mouse model assessed as decrease in disease activity index score at 20 mg/kg, po administered once a day for 10 days; assay type: functional, organism-based; details: time 10.0 day
[10] = test system: Mus musculus; test: Anti-colitis activity in DSS-induced ulcerative colitis C57BL/6 mouse model assessed as decrease in IL-17 expression at 20 mg/kg, po administered once a day for 10 days by qRT-PCR analysis; assay type: functional; design: scale not given: the % may be the effect or the level left; details: time 10 day
[11] = test system: Mus musculus; test: Anti-colitis activity against DSS-induced ulcerative colitis C57BL/6 mouse model assessed as amelioration of mucosal architecture score by measuring ulceration in colon at 10 to 20 mg/kg, po administered once a day for 10 days by H&E staining based histopathological analysis; assay type: functional, organism-based; details: dose 10-20 mg/kg, time 10.0 day
[12] = Tmax in Sprague-Dawley rat at 30 mg/kg, po measured upto 1440 min by LC-MS/MS analysis; assay type: ADME, organism-based; details: in vivo
[13] = test system: Mus musculus; test: Anti-colitis activity against DSS-induced ulcerative colitis C57BL/6 mouse model assessed as amelioration of epithelial change score by measuring cryptitis in colon at 10 to 20 mg/kg, po administered once a day for 10 days by H&E staining based histopathological analysis; assay type: functional, organism-based; details: dose 10-20 mg/kg, time 10.0 day
[14] = Unbound drug concentration in rat plasma at 10.74 ug/ml of total concentration measured after 12 hrs by ultrafiltration based HPLC analysis; assay type: ADME, cell-free; details: dose 10.74 µg/ml
[15] = Apparent oral clearance in Sprague-Dawley rat at 30 mg/kg measured upto 1440 min by LC-MS/MS analysis; assay type: ADME, organism-based; details: in vivo, 24 h
[16] = Oral bioavailability in Sprague-Dawley rat at 30 mg/kg measured upto 1440 min by LC-MS/MS analysis; assay type: ADME, organism-based; details: in vivo
[17] = test system: Mus musculus; test: Anti-colitis activity against DSS-induced ulcerative colitis C57BL/6 mouse model assessed as amelioration of epithelial change score by measuring hyperplasia in colon at 10 to 20 mg/kg, po administered once a day for 10 days by H&E staining based histopathological analysis; assay type: functional, organism-based; details: dose 10-20 mg/kg, time 10.0 day
[18] = test system: Mus musculus; test: In vivo activation of AhR in C57BL/6 mouse assessed as increase in CYP1A1 mRNA expression at 10 to 20 mg/kg, po administered once a day for 10 days by qRT-PCR analysis; assay type: functional, organism-based; details: dose 10-20 mg/kg, time 10.0 day
[19] = Unbound drug concentration in rat plasma at 48.02 ug/ml of total concentration measured after 12 hrs by ultrafiltration based HPLC analysis; assay type: ADME, cell-free; details: dose 48.02 µg/ml
[20] = Induction of cell differentiation in C57BL/6 mouse naive regulatory T cells assessed as increase in IL-10 mRNA level by measuring fold change at 3 uM incubated for 72 hrs by qRT-PCR analysis; assay type: functional
[21] = target: T1, Aryl hydrocarbon receptor; test: Activation of AhR transcription in C57BL/6 mouse naive T cells assessed as increase in AhRR mRNA expression at 1 to 3 uM by qRT-PCR analysis; assay type: cell-based; details: t cell, dose 1-3 µM
[22] = test system: Regulatory T cell; test: Induction of cell differentiation in C57BL/6 mouse naive regulatory T cells at 1 uM incubated for 72 hrs by flow cytometric analysis; assay type: functional, cell-based
[23] = test system: Mus musculus; test: Anti-colitis activity against DSS-induced ulcerative colitis C57BL/6 mouse model assessed as increase in Foxp3 mRNA level at 20 mg/kg, po administered once a day for 10 days by qRT-PCR analysis; assay type: functional, organism-based; details: time 10.0 day
[24] = target: T1, Aryl hydrocarbon receptor; test: Induction of AhR nuclear translocation in C57BL/6 mouse naive T cells at 1 to 10 uM incubated for 48 hrs by immunofluorescence based inverted microscopic analysis; details: t cell, dose 1-10 µM
[25] = Protein binding in rat plasma at 37.38 ug/ml of total concentration measured after 12 hrs by ultrafiltration based HPLC analysis; assay type: ADME, cell-free; details: at 37.38 µg/mL, read-out: PPB (converted)

Compound: COc1cc2c3c(c1)-c1ccc(O)cc1CC3NCC2 (stereo not given)
- MRT [1]: 3.07 h
- Activity [2]: 3.2%
- CL/F [3]: 0.01 mg/(ng/ml)/min
- Activity [4]: Active
- fold change (FC) [5]: 1.14
- Cmax [6]: 789 ng/mL
- AUC(0-inf) [7]: 8520 ng·h/mL
- Activity [8]: Active
- Activity [9]: Active
- Activity [10]: 86.96%
- Activity [11]: Active
- Tmax [12]: 2 h
- Activity [13]: Active
- Cp(f) [14]: 1440 ng/mL
- CL/F [15]: 0 mg/(ng/ml)/min
- bioavailability [16]: 87.4%
- Activity [17]: Active
- Activity [18]: Active
- Cp(f) [19]: 6670 ng/mL
- fold change (FC) [20]: 2.4
- Activity [21]: Active
- Activity [22]: Active
- Activity [23]: Active
- Activity [24]: Active
- fraction unbound at 12 h, 37.38 ug/ml [25]: 0.491
